The nature of series [1]: physchem. The following applies: octanol/water, pH 7.4.
Series [2] is described as follows: physchem. Conditions: buffer.

SMILES strings stand for the structures. Some results are limits rather than exact numbers.

The logD is the decadic logarithm of the distribution of all forms, ionised or not, between an organic phase and buffer at a given pH. Low readings indicate lower lipophilicity, high ones higher lipophilicity. By solubility is commonly meant the concentration that dissolves in the medium under given conditions. A high value points to much dissolved substance. In series [1], `O=C(OCc1cc2c(cc1Cl)OCO2)N1CCC(n2c(O)nc3ccccc32)CC1` displayed a logD of 4.2. The compound also showed a solubility in series [2] of less than 10 µM.

Compound `O=C(OC1CCc2ccccc21)N1CCC2(CC1)C(=O)NCN2c1ccccc1` (stereo not drawn) came in with a logD in series [1] greater than 4. The compound also returned a solubility in series [2] of less than 10 µM.

`O=C(OCc1cccc(Oc2ccccc2)c1)N1CCC2(CC1)C(=O)NCN2c1ccccc1`: the logD in series [1] is greater than 4. In addition, the solubility in series [2] was less than 10 µM.

The compound `O=C(NCCCn1c(=O)[nH]c2ccccc21)OCc1cc2c(cc1Cl)OCO2` returned a logD in series [1] greater than 4. Further, the solubility in series [2] was less than 10 µM.

For the origin of these results see ChEMBL document CHEMBL1134447 (J Med Chem, 2001).
